Reference: paper PMC8126888 (RSC Medicinal Chemistry, 2020)
Where two headings read alike, the source gives them in different places.

Columns and labels:
[1] = system: Leishmania infantum MHOM/MA(BE)/67/ITMAP263 intracellular amastigotes; conditions: intracellular amastigotes in PMM
[2] = system: primary peritoneal mouse macrophages (PMM); experiment: cells; conditions: Macrophage
in vitro [3] = conditions: human, microsomes
in vitro [4] = conditions: mouse, microsomes
physchem = conditions: HPLC, Ascentis Express RP Amide column
[5] = system: Leishmania infantum MHOM/MA(BE)/67/ITMAP263 intracellular amastigotes; experiment: microbe, parasite or virus in culture; conditions: Macrophage, in Mus musculus
in vitro [6] = conditions: human
in vitro [7] = conditions: human, HFF-1 cells
in vitro [8] = conditions: human, HepG2 cells
[9] = system: Trypanosoma cruzi, Tulahuen CL2, beta-galactosidase strain; experiment: microbe, parasite or virus in culture; conditions: MRC5, read-out: T. cruzi Tulahuen C4 (LacZ) IC50 (uM)
in vitro [10] = conditions: PAMPA
[11] = read-out: PMM pIC50 (converted)
[12] = pH 7.4, Microsome Clint,u Human, Table 2, intrinsic in vitro clearance, liver microsomes
[13] = pH 7.4, Microsome Clint,u Mouse, Table 2, intrinsic in vitro clearance, liver microsomes
[14] = pH 7.4, elog D, HPLC measured log D, pH 7.4
[15] = read-out: L. inf. pIC50, intracellular amastigotes in PMM (converted), geometric mean of a minimum of two experiments ± standard error
[16] = read-out: L. Inf. pIC50, from L. infantum intracellular amastigote IC50 (converted)
[17] = read-out: L. infantum MHOM/MA(BE)/67/ITMAP263 intracellular amastigotes IC50 (uM), intracellular amastigotes
[18] = pH 7.4, HLM CLint (uL/min/mg), human liver microsomes
[19] = pH 7.4, MLM CLint (uL/min/mg), mouse liver microsomes

| Structure (SMILES) | potency against L. inf. in words [1] | IC50 [2, 11] | microsomal CLint at 0.5 μM (in vitro [3]; [12]) | microsomal CLint at 0.5 μM (in vitro [4]; [13]) | chromatographic logD (physchem; [14]) | IC50 [5, 15] | microsomal CLint at 0.5 h, 0.5 µM (in vitro [4]; [13]) | IC50 ([2]; read-out: PMM IC50 (uM)) | CC50 at 3 days (in vitro [6]) | CC50 (in vitro [7]) | CC50 (in vitro [8]) | IC50 [5, 16] | IC50 [5, 17] | IC50 [9] | microsomal CLint at 0.5 μM (in vitro [3]; [18]) | microsomal CLint at 0.5 μM (in vitro [4]; [19]) | Papp (in vitro [10]) | chromatographic logD (physchem; pH 7.4, eLogD, experimental) |
| --- | --- | --- | --- | --- | --- | --- | --- | --- | --- | --- | --- | --- | --- | --- | --- | --- | --- | --- |
| COc1ccc(C#N)cc1S(=O)(=O)N(Cc1ccc(F)cc1)C1CCOCC1 [Compound 43] | inactive | > 64.6 µM | 194 µL/min/mg | 253 µL/min/mg | 3.4 | > 64.6 µM | – | – | – | – | – | – | – | – | – | – | – | – |
| COc1ccc(C#N)cc1S(=O)(=O)N(Cc1ccc(C(F)(F)F)nc1)Cc1ccc(C(F)(F)F)nc1 [Compound 50] | inactive | > 64.6 µM | < 23 µL/min/mg | – | 3.8 | 38.9 µM | 95 µL/min/mg | – | – | – | – | – | – | – | – | – | – | – |
| COc1ccc(CN(Cc2ccc(F)cc2)S(=O)(=O)c2cc(C#N)ccc2OC)cc1 [DNDI0003371172] | – | – | – | – | – | – | – | > 64 µM | > 64 µM | 22.6 µM | 35.3 µM | 2.95 µM | 2.92 µM | 13.2 µM | – | – | – | – |
| COc1ccc(C(=O)NC2COC2)cc1S(=O)(=O)N(Cc1ccc(F)cc1)Cc1ccc(F)cc1 [DNDI0003371174] | – | – | – | – | – | – | – | > 64 µM | > 64 µM | > 64 µM | > 64 µM | 0.794 µM | 0.79 µM | 38.5 µM | 178 µL/min/mg | 395 µL/min/mg | 4.92 ×10⁻⁶ cm/s | – |
| O=S(=O)(c1cc(F)ccc1F)N(Cc1ccccc1)C(CO)c1ccc(F)cc1 (stereo not drawn) [DNDI0003378486] | – | – | – | – | – | – | – | > 64 µM | 21.2 µM | 1.67 µM | 24.4 µM | 35.5 µM | 35.5 µM | 13.7 µM | – | – | – | – |
| COc1ccc(C#N)cc1S(=O)(=O)N(Cc1ccc(F)cc1)C1CCOCC1 [DNDI0003388084] | – | – | – | – | – | – | – | > 64 µM | > 64 µM | 44.1 µM | > 64 µM | > 64 µM | > 64 µM | 53.1 µM | 194 µL/min/mg | 253 µL/min/mg | 12.7 ×10⁻⁶ cm/s | – |
| COc1ccc(CN(Cc2ccc(F)cc2)S(=O)(=O)c2cc(OC)ccc2OC)cc1 [DNDI0003388087] | – | – | – | – | – | – | – | > 64 µM | 5.42 µM | 2.44 µM | 33.2 µM | 11.2 µM | 11.3 µM | 9.04 µM | 80 µL/min/mg | 19 µL/min/mg | – | 3.5 |
| COc1ccc(OC)c(S(=O)(=O)N(Cc2ccc(F)cc2)Cc2ccc(C#N)cc2)c1 [DNDI0003388088] | – | – | – | – | – | – | – | > 64 µM | > 64 µM | 51.9 µM | 36.2 µM | 18.6 µM | 18.6 µM | 19 µM | 87 µL/min/mg | – | 3.57 ×10⁻⁶ cm/s | 4.1 |
| COc1ccc(Cl)cc1S(=O)(=O)N(Cc1ccccc1)C(CO)c1ccc(F)cc1 (stereo not drawn) [DNDI0003388149] | – | – | – | – | – | – | – | > 64 µM | 21.6 µM | 1.25 µM | 15.7 µM | 1.7 µM | 1.69 µM | 15.8 µM | 18 µL/min/mg | 38 µL/min/mg | 3.4 ×10⁻⁶ cm/s | – |
| COc1ccc(CN(Cc2ccc(F)cc2)S(=O)(=O)c2cc(F)ccc2F)cc1 [DNDI0003388150] | – | – | – | – | – | – | – | > 64 µM | > 64 µM | > 64 µM | > 64 µM | 57.5 µM | 57 µM | 54.4 µM | – | – | – | – |
| O=S1(=O)c2cc(F)ccc2OCC(c2ccc(F)cc2)N1Cc1ccccc1 (stereo not drawn) [DNDI0003389122] | – | – | – | – | – | – | – | 16 µM | > 64 µM | 12.1 µM | > 64 µM | 10.2 µM | 10.2 µM | > 64 µM | – | – | – | 4.9 |
| O=[N+]([O-])c1ccc(Cl)cc1S(=O)(=O)N(Cc1ccccc1)Cc1ccc(F)cc1 [DNDI0003389123] | – | – | – | – | – | – | – | > 64 µM | > 64 µM | > 64 µM | > 64 µM | > 64 µM | > 64 µM | 26.4 µM | – | – | – | 5.1 |
| COc1ccc(C(=O)N2CCOCC2)cc1S(=O)(=O)N(Cc1ccc(F)cc1)CC(C)C [DNDI0003389127] | – | – | – | – | – | – | – | > 64 µM | > 64 µM | 8.25 µM | > 64 µM | 6.92 µM | 6.86 µM | 39.1 µM | 543 µL/min/mg | 355 µL/min/mg | 17.7 ×10⁻⁶ cm/s | – |
| COc1ccc(OC)c(S(=O)(=O)N(Cc2ccc(F)cc2)Cc2ccnn2C)c1 [DNDI0003389129] | – | – | – | – | – | – | – | 45.2 µM | > 64 µM | 26.3 µM | > 64 µM | 5.13 µM | 5.19 µM | 21.1 µM | 207 µL/min/mg | 1090 µL/min/mg | 35.6 ×10⁻⁶ cm/s | – |
| COc1ccc(OC)c(S(=O)(=O)N(Cc2ccc(F)cc2)Cc2cnc(OC)nc2OC)c1 [DNDI0003389321] | – | – | – | – | – | – | – | > 64 µM | > 64 µM | > 64 µM | > 64 µM | 53.7 µM | 53.8 µM | 27.8 µM | 270 µL/min/mg | 861 µL/min/mg | 15.2 ×10⁻⁶ cm/s | – |
| N#Cc1ccccc1S(=O)(=O)N(Cc1ccccc1)Cc1ccccc1 [DNDI0003389641] | – | – | – | – | – | – | – | > 64 µM | > 64 µM | 1.28 µM | > 64 µM | 11.2 µM | 11.3 µM | 18.4 µM | 577 µL/min/mg | – | 1.66 ×10⁻⁶ cm/s | 4.2 |
| COCCN(Cc1ccc(F)cc1)S(=O)(=O)c1cc(C(=O)N2CCOCC2)ccc1OC [DNDI0003392125] | – | – | – | – | – | – | – | > 64 µM | 22.7 µM | – | – | 22.4 µM | 22.5 µM | > 64 µM | 28 µL/min/mg | 60 µL/min/mg | 15.4 ×10⁻⁶ cm/s | – |
| CNC(=O)c1ccc(OC)c(S(=O)(=O)N(CCOC)Cc2ccccc2)c1 [DNDI0003392128] | – | – | – | – | – | – | – | > 64 µM | > 64 µM | – | – | 28.2 µM | 28.1 µM | > 64 µM | 23 µL/min/mg | 393 µL/min/mg | 7.61 ×10⁻⁶ cm/s | 2.7 |
| COCCN(Cc1ccccc1)S(=O)(=O)c1cc(C(=O)NC2COC2)ccc1OC [DNDI0003392129] | – | – | – | – | – | – | – | > 64 µM | > 64 µM | – | – | 15.5 µM | 15.5 µM | > 64 µM | 39 µL/min/mg | 114 µL/min/mg | 4.72 ×10⁻⁶ cm/s | 2.7 |
